Source: patent US5561042A, “Diamine platinum naphthalimide complexes as antitumor agents” (Cancer Therapy and Research Center, priority 1995, dated 1996)
“Also recorded” adds a separate entry of the source.

Tested on: EcoRI and Taq1 digested SV40 DNA
Test: DNA crosslinking, EcoRI/Taq I digested SV40 DNA, alkaline agarose gel
Assay type: binding
Settings: 0.5 and 1 μM, 37° C., 17 hours
Protocol: Isolated SV40 DNA (Gibco BRL) was digested with EcoRI (3 units/μg DNA) (Promega #R6011) at 37° C. for two hours, and concentrated through a spin column (Microcon 50, Amicon, Inc.). The EcoRI digested SV40 DNA was then digested with Taq I (3 units/μg DNA) (Promega #6151) at 65° C. for an additional 2 hours. After digestion, DNA was extracted once with phenol/chloroform/isoamyl alcohol (25:24:1), and once with chloroform/isoamyl alcohol (24:1). The digested DNA was then labelled on the 5' end with ^32 P using the DuPont/NEN T4 polynucleotide kinase 5' end labelling system and […]. Labelled DNA was loaded onto a pre-equilibrated Sephadex 25 spin purification column (Quick-spin, Boehringer-Mannheim Biochemicals) and eluted into 400 μl TE (20 mM Tris HCl, 1 mM EDTA). Eluted DNA was ethanol precipitated overnight at -20° C. and spun in an Eppendorf microcentrifuge for 1 hour at 4° C., 14,000 rpm.
Precipitated DNA was suspended in TE (20 mM Tris HCl, pH 8, 1 mM EDTA) at approximately 0.1 μg/μl and incubated at 37° C. for 17 hours in a 50 μl volume with 0, 0.5, 1.0, 1.5 or 2 μM compound 21. Following drug treatment, DNA was again ethanol precipitated, spun down, dried briefly and suspended in 20 μl water. […]

8-(3'-nitro-1',8'-naphthalimide)-3,6-diazaoctylamine dichloroplatinum(II) [Compound 21]
formation of DNA cross links (in words): formation of higher molecular weight DNA, around 4.6 and 5.8 Kb; also recorded: cross-linked DNA of 4.6-5.8 Kb
